Where two headings read alike, the source gives them in different places.
Assays:
Type in all cases: in vivo, human
[1] = Phase 1 study LXBA, multiple-dose steady-state plasma PK in healthy subjects; conditions: for RA (accumulation ratio based on AUC(0-τ)) / AUC: tau = 12 hours; for Cmax / AUC(0-t) / AUC: human, in vivo, steady state; for Cmax: n = 6, geometric mean; for AUC(0-t): = 2 × AUC(0-τ), read-out: AUC(0-24); for AUC: geometric mean, read-out: AUC(0-τ)
Description: The multiple-dose PK of Example 5 were evaluated at doses of 200 mg, 400 mg, and 600 mg, twice daily. The median time to tmax ranged from 1 to 3 hours post dose.
(§1) Study LXBA is a completed study and consisted of 2 parts, Part A and Part B (TABLE 1). Part A of the study had 18 healthy subjects in 3 dosing cohorts, and Part B had 9 healthy subjects exposed to Example 5. […] In Part A, all treatment-emergent adverse events (TEAEs) were mild in severity except for 1 moderate event of presyncope. Constipation and insomnia (2 events each) were the only TEAEs reported in >1 subject. In Part B, the reported TEAEs were dysgeusia, nausea, and vomiting, which were all mild in severity.

participants with CLBP = experiment: H0P-MC-BP03 Phase 2 placebo-controlled trial, chronic low back pain
Excerpt: The purpose of this study was to test whether Example 5 is efficacious in relieving chronic low back pain (CLBP). Data will be collected to assess the safety and tolerability of Example 5 in this study population, which was previously discussed. Pharmacokinetic (PK) properties and pharmacodynamic (PD) effects were also be explored. The totality of data from this proof-of-concept study will assess the benefits and risks associated with Example 5.
BP03 was an 8-week, Phase 2, randomized, double-blind, placebo-controlled study that will compare Example 5 versus placebo in participants with CLBP. Participants received either Example 5 or placebo. Based on tolerability, participants took up to a maximum of 3 capsules orally (each capsule is 200 mg), twice daily (BID), approximately every 12 hours, for a total dose of 600 mg.
The primary clinical question of interest was, “What is the treatment difference between Example 5 and placebo assessed using mean change from baseline to endpoint (Week 8) for average pain intensity (API) as measured by the numeric rating scale (NRS) in participants with CLBP regardless of initiation of rescue medication or other allowed concomitant medication and assuming that they would have continued initially randomized treatment condition?”

healthy subjects [2] = experiment: Phase 1 study LXBB (SAD/MAD), safety and tolerability in healthy subjects
Excerpt: (§2) The safety and tolerability of Example 5, were initially based on the 2 completed Phase 1 studies (LXBB and LXBA) and later confirmed with 3 completed Phase 2 studies (OA03, BP03, and NP03, as disclosed below).
(§3) Phase 1 Study LXBB was a first-in-human single-ascending dose/multiple-ascending dose (SAD/MAD) study in 89 healthy subjects (TABLE 1). […] One subject was discontinued due to the nondrug-related AE of pyrexia. In the SAD study, 1 subject each reported AEs of temporomandibular joint syndrome and tension headache. In the food effect study, 1 subject reported dry eye and nausea. In the Younger Group 10-day multiple-dose exposure study, the most commonly reported AEs were headache (2 subjects), diarrhea (2 subjects), nausea, rhinitis, and orthostatic hypotension (1 subject each). In the Elderly Group 10-day multiple-dose exposure study, the most commonly reported AEs were headache (5 subjects), pain in extremity (1 subject), vessel puncture site bruise (1 subject), dizziness (1 subject), and orthostatic hypotension (1 subject).
The mean PR interval increase from baseline was 13 msec in subjects receiving single 400-mg dose (SAD); the highest PR interval change from baseline in an individual subject was 45 msec (after the 300-mg dose in MAD).

[3] = system: participants with OA in the knee; experiment: H0P-MC-OA03 Phase 2 placebo-controlled trial, osteoarthritis pain
Excerpt: The purpose of this study was to test whether Example 5 is efficacious in relieving osteoarthritis (OA) pain in the knee. Data was also collected to assess the safety and tolerability of Example 5 in this study population and previously discussed. Pharmacokinetic properties and pharmacodynamic effects were also be explored. The totality of data from this proof-of-concept study assessed the benefits and risks associated with Example 5.
OA03 was an 8-week, Phase 2, randomized, double-blind, placebo-controlled study that compared Example 5 versus placebo in participants with OA in the knee.
The primary clinical question of interest was “What is the treatment difference between Example 5 and placebo assessed using mean change from baseline to endpoint (Week 8) for average pain intensity (API) as measured using the numeric rating scale (NRS) in participants with OA of the knee regardless of initiation of rescue medication or other allowed concomitant medication and assuming that they would have continued initially randomized treatment condition?”
The key secondary clinical question of interest was: “What is the treatment difference between Example 5 and placebo assessed using mean change from baseline to endpoint (Week 8) for pain as measured by the WOMAC® (Western Ontario and McMaster Universities Arthritis Index) pain subscale in participants with OA of the knee regardless of initiation of rescue medication or other allowed concomitant medication and assuming that they would have continued initially randomized treatment condition?”
Participants were randomly assigned in the ratio of 2:1 to Example 5 or placebo. Based on tolerability, participants could take up to a maximum of 3 capsules orally (each capsule was 200 mg), twice daily (BID), approximately every 12 hours, for a total dose of 600 mg.
The protocol was amended to include a titration to the target dose of 600 mg. Investigators could reduce the dose from 600 to 400 mg after discussion with the participant due to tolerability as long as the change occurred before the end of Visit 4, that is, study Week 2. The medical monitor was contacted as needed.

healthy subjects [4] = experiment: Phase 1 study LXBA, safety and tolerability in healthy subjects
Excerpt: as §2, §1

[5] = Phase 1 study LXBB, single-dose pharmacokinetics in healthy subjects
Description: A total of 116 healthy subjects received at least one dose of Example 5 in phase 1 studies LXBB and LXBA.
The single-dose pharmacokinetics (PK) of Example 5 were evaluated at a dose range of from 20 to 400 mg.
as §3

SMILES: Cc1cccnc1OCC(C)(C)NC(=O)[C@H]1[C@@H]2CNC[C@@H]21.O=C(O)C(O)C(O)C(=O)O [Example 5, (1R,5S,6r)-N-(2-Methyl-1-((3-methylpyridin-2-yl)oxy)propan-2-yl)-3-azabicyclo[3.1.0]hexane-6-carboxamide L-tartrate sesquihydrate]
- RA (accumulation ratio based on AUC(0-τ)) ([1]; 200 mg BID): 1.49
- RA (accumulation ratio based on AUC(0-τ)) ([1]; 400 mg BID): 1.81
- RA (accumulation ratio based on AUC(0-τ)) ([1]; 600 mg BID): 1.64
- Cmax ([1]; 200 mg BID (400 mg)): 1620 ng/mL
- AUC(0-t) ([1]; 200 mg BID): 23000 ng·h/mL
- AUC ([1]; 200 mg BID): 11500 ng·h/mL
- Cmax ([1]; 400 mg BID (800 mg)): 3240 ng/mL
- AUC(0-t) ([1]; 400 mg BID): 51000 ng·h/mL
- AUC ([1]; 400 mg BID): 25800 ng·h/mL
- Cmax ([1]; 600 mg BID (1200 mg)): 5210 ng/mL
- AUC(0-t) ([1]; 600 mg BID): 77400 ng·h/mL
- AUC ([1]; 600 mg BID): 38700 ng·h/mL
- steady-state Cmax and AUC0-24 inter-subject coefficient of variations ([1]; multiple dose, 200 mg, 400 mg and 600 mg twice daily): < 25%
- Mean change from baseline assessment to endpoint for API as measured using the NRS (participants with CLBP; 8 weeks after initial treatment administration, up to 600 mg Q12H, n = 102): −1.7
- primary objective: efficacy versus placebo, API by weekly average of NRS (participants with CLBP; Week 8, CLBP): did not meet the prespecified threshold
- deaths or serious adverse events (SAEs) (healthy subjects [2]; SAD and MAD study): No deaths or serious adverse events (SAEs) were reported
- severity of adverse events (AEs) (healthy subjects [2]; SAD and MAD study): mild or moderate in severity
- tolerability (healthy subjects [2]; SAD and MAD study, 89 healthy subjects): well tolerated
- highest PR interval change from baseline in an individual subject (healthy subjects [2]; after the 300-mg dose in MAD): 45 ms
- changes in chemistry, hematology, or coagulation parameters (healthy subjects [2]; human, in vivo): no clinically significant changes
- mean PR interval increase from baseline (healthy subjects [2]; single 400-mg dose (SAD)): 13 ms
- Mean change from baseline assessment to endpoint for API as measured using the NRS ([3]; 8 weeks after initial treatment administration, up to 600 mg Q12H, n = 135): −1.7
- key secondary objective: efficacy versus placebo, WOMAC pain subscale ([3]; Week 8): did not meet the prespecified threshold
- primary objective: efficacy versus placebo, API by weekly average of NRS ([3]; Week 8, osteoarthritic pain): did not meet the prespecified threshold
- mean change in pain intensity from baseline assessment to Week 8 using the WOMAC pain subscale ([3]; Week 8, up to 600 mg Q12H, n = 135): −2.6
- tolerability (healthy subjects [4]; Part A 18 and Part B 9 healthy subjects): generally well tolerated
- deaths, SAEs, or discontinuations due to AEs (healthy subjects [4]; human, in vivo): No deaths, SAEs, or discontinuations due to AEs have been reported
- severity of AEs (healthy subjects [4]; human, in vivo): majority of AEs were of mild severity
- Tmax ([5]; human, in vivo): 2 to 3 h
- CL renal ([5]; human, in vivo, single dose, 20 to 400 mg, read-out: Renal clearance (converted)): ~167 mL/min
- half-life ([5]; human, in vivo, single dose, 20 to 400 mg, read-out: mean terminal half-life (t1/2)): 11 to 13 h
- dose dependence of plasma concentrations ([5]; single dose, 20 to 400 mg): generally increased in a dose-proportional manner
- inter-subject variability coefficient of variation of plasma concentrations ([5]; single dose, 20 to 400 mg): < 25%
